The values that follow come from patent US20240368164A1, “PURINE NUCLEOSIDES, THEIR INTERMEDIATES, AND METHODS OF PREPARATION THEREOF” (Astrocyle Pharmaceuticals, Inc., priority 2021, published 2024).

The assay has as its target T1, A3 receptor in the mouse (Mus musculus, UniProt Q61618).
T1 sequence (Q61618 1-319): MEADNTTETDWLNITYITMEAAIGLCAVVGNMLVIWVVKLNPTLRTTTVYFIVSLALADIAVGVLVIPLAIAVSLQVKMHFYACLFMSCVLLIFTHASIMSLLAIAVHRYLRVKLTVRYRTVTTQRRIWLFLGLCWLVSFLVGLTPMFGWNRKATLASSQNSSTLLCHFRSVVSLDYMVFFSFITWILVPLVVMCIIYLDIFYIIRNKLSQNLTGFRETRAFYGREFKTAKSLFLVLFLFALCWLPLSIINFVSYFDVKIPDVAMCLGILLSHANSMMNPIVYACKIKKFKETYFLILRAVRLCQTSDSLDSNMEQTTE
Description: Affinity at the mouse A3 receptor. Type of assay: binding. As to the method:
Similar competition binding assays may be conducted using HEK293 cell membranes expressing mARs using [^125I]I-AB-MECA to label A1 or A3ARs and [3H]CGS21680 to label A2AARs. IC50 values were converted to Ki values using known methods. Nonspecific binding was determined in the presence of 100 μM NECA.

On to `CSc1nc(N)c2ncn([C@H]3[C@H](O)[C@H](O)[C@]4(CO)C[C@H]34)c2n1` [Compound I-1, (1R,2R,3S,4R,5S)-4-(6-Amino-2-(methylthio)-9H-purin-9-yl)-1-(hydroxymethyl)bicyclo[3.1.0]hexane-2,3-diol], for which the “difference in affinity of I-1 and Cl-IB-MECA at mouse A3 receptor” value (I-1 versus Cl-IB-MECA) is reported as “approximately 25,000 fold”. For the same compound, the Ki (mouse A3 receptor, read-out: affinity as agonist of the A3 receptor in the mouse) turned out to be 4.9 µM.
